What was measured:
[1] = molecular target: T1, human TLR7 (Homo sapiens, UniProt Q9NYK1); test: HEK293-Blue-hTLR-7 cells assay (SEAP reporter, R848 stimulation); type: cell-based; conditions: HEK293-Blue-hTLR7 cells, R848 ligand, 20 hrs incubation; read-out: HEK/hTLR7 IC50
T1 sequence (Q9NYK1 27-1049): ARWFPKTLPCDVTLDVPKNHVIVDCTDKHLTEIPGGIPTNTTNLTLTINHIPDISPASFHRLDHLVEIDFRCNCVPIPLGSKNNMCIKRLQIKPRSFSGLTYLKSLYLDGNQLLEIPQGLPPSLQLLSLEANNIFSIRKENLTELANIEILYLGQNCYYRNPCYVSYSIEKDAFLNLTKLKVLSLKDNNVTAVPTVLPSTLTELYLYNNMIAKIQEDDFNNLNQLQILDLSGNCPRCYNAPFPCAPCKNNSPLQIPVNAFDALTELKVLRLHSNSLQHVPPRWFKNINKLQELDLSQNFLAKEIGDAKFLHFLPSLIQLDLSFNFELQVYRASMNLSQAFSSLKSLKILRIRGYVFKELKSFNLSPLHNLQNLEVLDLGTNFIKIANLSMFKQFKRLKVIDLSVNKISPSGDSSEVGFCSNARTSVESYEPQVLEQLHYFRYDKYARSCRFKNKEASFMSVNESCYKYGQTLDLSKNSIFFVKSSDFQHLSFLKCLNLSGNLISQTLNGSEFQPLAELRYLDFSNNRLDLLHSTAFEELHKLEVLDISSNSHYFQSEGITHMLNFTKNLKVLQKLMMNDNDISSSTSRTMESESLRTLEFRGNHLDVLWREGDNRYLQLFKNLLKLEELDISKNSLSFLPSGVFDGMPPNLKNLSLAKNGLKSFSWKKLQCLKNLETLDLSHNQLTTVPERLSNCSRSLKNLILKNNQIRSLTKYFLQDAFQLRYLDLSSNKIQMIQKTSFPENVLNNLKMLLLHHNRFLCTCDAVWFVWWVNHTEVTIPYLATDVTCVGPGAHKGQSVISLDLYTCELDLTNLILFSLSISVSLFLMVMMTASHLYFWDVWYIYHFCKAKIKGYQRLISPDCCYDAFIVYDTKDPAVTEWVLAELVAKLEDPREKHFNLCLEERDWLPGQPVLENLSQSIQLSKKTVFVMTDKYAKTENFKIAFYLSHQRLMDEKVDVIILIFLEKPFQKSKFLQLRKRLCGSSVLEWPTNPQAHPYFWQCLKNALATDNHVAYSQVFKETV
Protocol: The following tests were carried out in order to determine the activity of the compounds of formula (I) in HEK293-Blue-hTLR-7/8/9 cells assay.
A stable HEK293-Blue-hTLR-7 cell line was purchased from InvivoGen (Cat.#: hkb-htlr7, San Diego, California, USA). These cells were originally designed for studying the stimulation of human TLR7 by monitoring the activation of NF-κB. A SEAP (secreted embryonic alkaline phosphatase) reporter gene was placed under the control of the IFN-β minimal promoter fused to five NF-κB and AP-1-binding sites. The SEAP was induced by activating NF-κB and AP-1 via stimulating HEK-Blue hTLR7 cells with TLR7 ligands. Therefore the reporter expression was declined by TLR7 antagonist under the stimulation of a ligand, such as R848 (Resiquimod), for incubation of 20 hrs. The cell culture supernatant SEAP reporter activity was determined using QUANTI-Blue™ kit (Cat.#: rep-qb1, Invivogen, San Diego, Ca, USA) at a wavelength of 640 nm, a detection medium that turns purple or blue in the presence of alkaline phosphatase.
HEK293-Blue-hTLR7 cells were incubated at a density of 250,000˜450,000 cells/mL in a volume of 170 μL in a 96-well plate in Dulbecco's Modified Eagle's medium (DMEM) containing 4.5 g/L glucose, 50 U/mL penicillin, […], […], 2 mM L-glutamine, 10% (v/v) heat-inactivated fetal bovine serum with addition of 20 μL test compound in a serial dilution in the presence of final DMSO at 1% and 10 μL of 20 uM R848 in above DMEM, perform incubation under 37° C. in a CO2 incubator for 20 hrs. Then 20 μL of the supernatant from each well was incubated with […] Quanti-blue substrate solution at 37° C. for 2 hrs and the absorbance was read at 620-655 nm using a spectrophotometer. The signalling pathway that TLR7 activation leads to downstream NF-κB activation has been widely accepted, and therefore similar reporter assay was modified for evaluating TLR7 antagonist.

[2] = molecular target: T2, hERG (Homo sapiens, UniProt Q12809); test: hERG channel inhibition assay (patch-clamp, CHO hERG cells); type: cell-based; conditions: for IC50 / IC20: CHO hERG cells, whole-cell patch-clamp; for IC20: human, CHO cells stably expressing hERG; for hERG IC20/TLR7 IC50 / hERG IC20/TLR8 IC50 / hERG IC20/TLR9 IC50: safety ratio, >30 suggests sufficient window
T2 construct: expressed in transfected cells
T2 sequence (Q12809 whole entry): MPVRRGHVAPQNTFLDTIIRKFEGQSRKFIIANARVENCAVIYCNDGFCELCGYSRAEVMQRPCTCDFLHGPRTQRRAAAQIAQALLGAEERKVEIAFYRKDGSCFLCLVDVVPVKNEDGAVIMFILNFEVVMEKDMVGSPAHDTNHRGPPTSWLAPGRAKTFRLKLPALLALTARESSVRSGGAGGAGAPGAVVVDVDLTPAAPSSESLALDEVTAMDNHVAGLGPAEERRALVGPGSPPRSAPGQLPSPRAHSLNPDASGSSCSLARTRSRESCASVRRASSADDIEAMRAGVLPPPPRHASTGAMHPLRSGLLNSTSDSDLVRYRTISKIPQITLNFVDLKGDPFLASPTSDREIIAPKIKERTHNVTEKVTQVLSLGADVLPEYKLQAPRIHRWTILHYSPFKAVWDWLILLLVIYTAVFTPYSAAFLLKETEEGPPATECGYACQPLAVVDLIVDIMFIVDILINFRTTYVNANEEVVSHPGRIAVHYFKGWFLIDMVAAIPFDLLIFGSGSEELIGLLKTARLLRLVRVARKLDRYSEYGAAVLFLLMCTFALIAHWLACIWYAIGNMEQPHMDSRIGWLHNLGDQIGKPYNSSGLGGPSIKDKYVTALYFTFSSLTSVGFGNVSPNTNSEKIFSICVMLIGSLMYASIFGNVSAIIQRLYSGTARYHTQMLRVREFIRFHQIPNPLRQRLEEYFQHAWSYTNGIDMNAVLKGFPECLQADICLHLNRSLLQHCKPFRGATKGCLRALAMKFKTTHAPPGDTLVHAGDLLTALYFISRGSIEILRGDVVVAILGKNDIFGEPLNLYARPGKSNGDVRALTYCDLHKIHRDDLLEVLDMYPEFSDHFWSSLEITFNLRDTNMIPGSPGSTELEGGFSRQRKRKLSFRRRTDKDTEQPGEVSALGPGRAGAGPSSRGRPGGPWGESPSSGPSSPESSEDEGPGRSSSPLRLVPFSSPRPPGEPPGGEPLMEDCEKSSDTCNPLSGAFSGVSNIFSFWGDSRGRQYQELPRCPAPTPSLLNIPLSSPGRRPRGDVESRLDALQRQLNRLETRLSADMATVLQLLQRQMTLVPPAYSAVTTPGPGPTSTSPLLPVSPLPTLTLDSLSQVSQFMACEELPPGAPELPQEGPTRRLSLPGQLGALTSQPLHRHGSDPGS
Protocol: The hERG K^+ channels were cloned in humans and stably expressed in a CHO (Chinese hamster ovary) cell line. CHOhERG cells were used for patch-clamp (voltage-clamp, whole-cell) experiments. Cells were stimulated by a voltage pattern to activate hERG channels and conduct I KhERG currents (rapid delayed outward rectifier potassium current of the hERG channel). After the cells were stabilized for a few minutes, the amplitude and kinetics of I KhERG were recorded at a stimulation frequency of 0.1 Hz (6 bpm). Thereafter, the test compound was added to the preparation at increasing concentrations. For each concentration, an attempt was made to reach a steady-state effect, usually, this was achieved within 3-10 min at which time the next highest concentration was applied. The amplitude and kinetics of IKhERG are recorded in each concentration of the drug which were compared to the control values (taken as 100%). […]

Compound `C[C@@H]1CN(c2ccc(C#N)c3ncccc23)C[C@H](C)N1Cc1ccc(N2CCNCC2)cc1` [Example 1, 5-[(3R,5S)-3,5-Dimethyl-4-[(4-piperazin-1-ylphenyl)methyl]piperazin-1-yl]quinoline-8-carbonitrile] has an IC50 [1] of 53 nM.
Work on `C[C@@H]1CN(c2ccc(C#N)c3ncccc23)C[C@@H](C)N1Cc1ccc(N2CCNCC2)cc1` [Example 2] yielded an IC50 [1] of 87 nM.
With `C[C@@H]1CN(c2ccc(C#N)c3ncccc23)C[C@H](C)N1Cc1ccc(N2CCNCC2)nc1` [Example 3, 5-[(3R,5S)-3,5-Dimethyl-4-[(6-piperazin-1-yl-3-pyridyl)methyl]piperazin-1-yl]quinoline-8-carbonitrile] the IC50 [1] was 19 nM, the IC50 [2] was over 20000 nM and the IC20 [2] was 7400 nM. For the same compound, the “hERG IC20/TLR7 IC50” value [2] was 383, the “hERG IC20/TLR8 IC50” value [2] was 240 and the “hERG IC20/TLR9 IC50” value [2] was 79.
`C[C@@H]1CN(c2ccc(C#N)c3ncccc23)C[C@H](C)N1Cc1ncc(N2CCNCC2)cn1` [Example 4, 5-[(3S,5R)-3,5-Dimethyl-4-[(5-piperazin-1-ylpyrimidin-2-yl)methyl]piperazin-1-yl]quinoline-8-carbonitrile] was tested, and the IC50 [1] was 16 nM, the IC50 [2] was over 20000 nM and the IC20 [2] was 6300 nM. The “hERG IC20/TLR7 IC50” value [2] was 384, the “hERG IC20/TLR8 IC50” value [2] was 355 and the “hERG IC20/TLR9 IC50” value [2] was 45.
`C[C@@H]1CN(c2ccc(C#N)c3ncccc23)C[C@H](C)N1Cc1ccc(N2CCNCC2)cn1` [Example 5, 5-[(3S,5R)-3,5-Dimethyl-4-[(5-piperazin-1-yl-2-pyridyl)methyl]piperazin-1-yl]quinoline-8-carbonitrile] gave an IC50 [1] of 12 nM, an IC50 [2] of over 20000 nM and an IC20 [2] of over 10000 nM. For the same compound, the “hERG IC20/TLR7 IC50” value [2] was over 833, the “hERG IC20/TLR8 IC50” value [2] was over 666 and the “hERG IC20/TLR9 IC50” value [2] was over 119.
`C[C@@H]1CN(c2ccc(C#N)c3ncccc23)C[C@H](C)N1Cc1ncc(N2CCN(C(=O)CN(C)C)CC2)cn1` [Example 6, 5-[(3S,5R)-4-[[5-[4-[2-(Dimethylamino)acetyl]piperazin-1-yl]pyrimidin-2-yl]methyl]-3,5-dimethyl-piperazin-1-yl]quinoline-8-carbonitrile] showed an IC50 [1] of 67 nM.
`C[C@@H]1CN(c2ccc(C#N)c3ncccc23)C[C@H](C)N1Cc1ccc(N2CCN(C)CC2)cn1` [Example 7, 5-[(3S,5R)-3,5-dimethyl-4-[[5-(4-methylpiperazin-1-yl)-2-pyridyl]methyl]piperazin-1-yl]quinoline-8-carbonitrile] showed an IC50 [1] of 30 nM.
`C[C@@H]1CN(c2ccc(C#N)c3ncccc23)C[C@H](C)N1Cc1ccc(N2CC3CNCC(C2)O3)cn1` [Example 8, 5-[(3S,5R)-3,5-Dimethyl-4-[[5-(9-oxa-3,7-diazabicyclo[3.3.1]nonan-3-yl)-2-pyridyl]methyl]piperazin-1-yl]quinoline-8-carbonitrile] showed an IC50 [1] of 78 nM.
In the case of `C[C@@H]1CN(c2ccc(C#N)c3ncccc23)C[C@H](C)N1Cc1ccc(N[C@@H]2CNC[C@@H]2F)cn1` [Example 9, 5-[(3R,5S)-3,5-Dimethyl-4-[[5-[[(3R,4S)-4-fluoropyrrolidin-3-yl]amino]-2-pyridyl]methyl]piperazin-1-yl]quinoline-8-carbonitrile], the IC50 [1] is reported as 51 nM.
`C[C@@H]1CN(c2ccc(C#N)c3ncccc23)C[C@H](C)N1Cc1ccc(N2CCN(C(=O)C3CCCN3)CC2)cn1` (stereo partly drawn) [Example 10, 5-[(3R,5S)-3,5-Dimethyl-4-[[5-[4-(pyrrolidine-2-carbonyl)piperazin-1-yl]-2-pyridyl]methyl]piperazin-1-yl]quinoline-8-carbonitrile] gave an IC50 [1] of 69 nM, an IC50 [2] of over 20000 nM and an IC20 [2] of over 10000 nM. The “hERG IC20/TLR7 IC50” value [2] was over 145, the “hERG IC20/TLR8 IC50” value [2] was over 197 and the “hERG IC20/TLR9 IC50” value [2] was over 242.
Compound `C[C@@H]1CN(c2ccc(C#N)c3ncccc23)C[C@H](C)N1Cc1ccc(N2CCN(C(=O)CN(C)C)CC2)cn1` [Example 11, 5-[(3S,5R)-4-[[5-[4-[2-(Dimethylamino)acetyl]piperazin-1-yl]-2-pyridyl]methyl]-3,5-dimethyl-piperazin-1-yl]quinoline-8-carbonitrile] has an IC50 [1] of 50 nM, an IC50 [2] of over 20000 nM and an IC20 [2] of over 10000 nM. The “hERG IC20/TLR7 IC50” value [2] was over 198, the “hERG IC20/TLR8 IC50” value [2] was over 289 and the “hERG IC20/TLR9 IC50” value [2] was over 104.
`C[C@@H]1CN(c2ccc(C#N)c3ncccc23)C[C@H](C)N1Cc1ccc(N2CCNCC2CO)cc1` (stereo partly drawn) [Example 12, 5-[(3R,5S)-4-[[4-[2-(Hydroxymethyl)piperazin-1-yl]phenyl]methyl]-3,5-dimethyl-piperazin-1-yl]quinoline-8-carbonitrile] gave an IC50 [1] of 87 nM.
Compound `C[C@@H]1CN(c2ccc(C#N)c3ncccc23)C[C@H](C)N1CC(=O)N1CCc2nc(N3CCNCC3)ccc2C1` [Example 13, 5-[(3R,5S)-3,5-Dimethyl-4-[2-oxo-2-(2-piperazin-1-yl-7,8-dihydro-5H-1,6-naphthyridin-6-yl)ethyl]piperazin-1-yl]quinoline-8-carbonitrile] has an IC50 [1] of 56 nM.
`C[C@@H]1CN(c2ccc(C#N)c3ncccc23)C[C@H](C)N1CC(=O)N1CCc2cc(N3CCNCC3)ccc2C1` [Example 14, 5-[(3R,5S)-3,5-Dimethyl-4-[2-oxo-2-(6-piperazin-1-yl-3,4-dihyrdo-1H-isoquinolin-2-yl)ethyl]piperazin-1-yl]quinoline-8-carbonitrile] gave an IC50 [1] of 80 nM.
`C[C@@H]1CN(c2ccc(C#N)c3ncccc23)C[C@H](C)N1CC(=O)N1CCc2ccc(N3CCNCC3)cc2C1` [Example 15, 5-[(3R,5S)-3,5-dimethyl-4-[2-pxp-2-(7-piperazin-1-yl-3,4-dihydro-1H-isoquinolin-2-yl)ethyl]piperazin-1-yl]quinoline-8-carbonitrile] gave an IC50 [1] of 67 nM.
Work on `CC1CN(c2ccc(C#N)c3ncccc23)CCN1CC(=O)Nc1ccc(N2CCNCC2)cc1` (stereo not shown) [Example 17, 2-[4-(8-Cyano-5-quinolyl)-2-methyl-piperazin-1-yl]-N-(4-piperazin-1-ylpheny)acetamide] yielded an IC50 [1] of 88 nM.
With `CC1CN(c2ccc(C#N)c3ncccc23)CCN1CC(=O)Nc1ccc2c(c1)CCNC2` (stereo not shown) [Example 18, 2-[4-(8-Cyano-5-quinolyl)-2-methyl-piperazin-1yl]-N-(1,2,3,4-tetrahydroisoquinolin-6-yl)acetamide] the IC50 [1] was 60 nM.
`CC1CN(c2ccc(C#N)c3ncccc23)CCN1CC(=O)N1CCC(C2CCN(C)CC2)CC1` (stereo not shown) [Example 19, 5-[3-methyl-4-[2-[4-(1-methyl-4-piperidyl)-1-piperidyl]-2-oxo-ethyl]piperazin-1-yl]quinoline-8-carbonitrile] gave an IC50 [1] of 57 nM.

— patent US11952363B2, “Piperazine compounds for the treatment of autoimmune disease” (Hoffmann-La Roche Inc., priority 2018, dated 2024)
